# Reference: patent publication US20250295646A1, “METHODS OF USE OF T-TYPE CALCIUM CHANNEL MODULATORS” (Praxis Precision Medicines, Inc., priority 2022, published 2025)
# Test system: adult patients with essential tremor
# Test: Example 16: video-reviewed TETRAS performance subscale and upper limb score; on TETRAS Performance Subscale Total Score by Video Review, Change from Baseline, Mean (SD): test concentration or dose not given here; on TETRAS Performance Subscale Total Score by Video Review, Change from Baseline, Median: test concentration or dose not given here; on TETRAS Performance Subscale Total Score by Video Review, Mean (SD): test concentration or dose not given here; on TETRAS Performance Subscale Total Score by Video Review, Median: test concentration or dose not given here
# Format: in vivo, human
# Source text: Video-reviewed TETRAS Analyses Video reviewed TETRAS assessments were generally consistent with those conducted at the clinic. Video reviewed TETRAS performance subscale total scores are summarized for Part A, the open-label titration phase of Part B, and the randomized withdrawal phase of Part B in Table 42, Table 43, and Table 44.
# Video reviewed upper limb score values were generally consistent with those conducted at the clinic and are summarized for Part A, the open-label titration phase of Part B, and the randomized withdrawal phase of Part B in Table 45, Table 46, and Table 47, respectively.
# [1] = Day 1, 6 hours Post - dose, Part A (N = 7)
# [2] = Day 1, 6 hours Post - dose, Part B Open-Label Titration Phase (N = 17)
# [3] = Day 1, 6 hours Post - dose, Part B, Formula (I) arm (N = 6)
# [4] = Day 7, Part B Open-Label Titration Phase (N = 17)
# [5] = Day 7, Part B, Formula (I) arm (N = 6)
# [6] = Day 21, Part B Open-Label Titration Phase (N = 17)
smiles,measurement,setting,value
"CC(C)(C)NC(=O)CN1CCC(CNC(=O)c2cc(F)cc(Cl)c2)CC1 [compound of formula (I), N-((1-(2-(tert-butylamino)-2-oxoethyl)piperidin-4-yl)methyl)-3-chloro-5-fluorobenzamide]","TETRAS Performance Subscale Total Score by Video Review, Change from Baseline, Mean (SD)",[1],0.29 (1.753)
same,"TETRAS Performance Subscale Total Score by Video Review, Change from Baseline, Median",[1],0.50
same,"TETRAS Performance Subscale Total Score by Video Review, Mean (SD)",[1],24.00 (5.148)
same,"TETRAS Performance Subscale Total Score by Video Review, Median",[1],23.00
same,"TETRAS Performance Subscale Total Score by Video Review, Percentage Change from Baseline in Tremor Amplitude, Mean (SD)",[1],1.98 (11.724) %
same,"TETRAS Performance Subscale Total Score by Video Review, Percentage Change from Baseline in Tremor Amplitude, Median",[1],3.53%
same,"TETRAS Upper Limb Score by Video Review, Change from Baseline, Mean (SD)",[1],0.21 (0.859)
same,"TETRAS Upper Limb Score by Video Review, Change from Baseline, Median",[1],0.00
same,"TETRAS Upper Limb Score by Video Review, Mean (SD)",[1],10.93 (2.440)
same,"TETRAS Upper Limb Score by Video Review, Median",[1],10.00
same,"TETRAS Upper Limb Score by Video Review, Percentage Change from Baseline in Tremor Amplitude, Mean (SD)",[1],3.57 (14.794) %
same,"TETRAS Upper Limb Score by Video Review, Percentage Change from Baseline in Tremor Amplitude, Median",[1],0.00%
same,"TETRAS Performance Subscale Total Score by Video Review, Change from Baseline, Mean (SD)",[2],−0.74 (2.544)
same,"TETRAS Performance Subscale Total Score by Video Review, Change from Baseline, Median",[2],−0.50
same,"TETRAS Performance Subscale Total Score by Video Review, Mean (SD)",[2],20.79 (6.715)
same,"TETRAS Performance Subscale Total Score by Video Review, Median",[2],20.50
same,"TETRAS Performance Subscale Total Score by Video Review, Percentage Change from Baseline in Tremor Amplitude, Mean (SD)",[2],−4.49 (15.951) %
same,"TETRAS Performance Subscale Total Score by Video Review, Percentage Change from Baseline in Tremor Amplitude, Median",[2],−3.53%
same,"TETRAS Upper Limb Score by Video Review, Change from Baseline, Mean (SD)",[2],−0.29 (1.238)
same,"TETRAS Upper Limb Score by Video Review, Change from Baseline, Median",[2],0.00
same,"TETRAS Upper Limb Score by Video Review, Mean (SD)",[2],9.47 (2.809)
same,"TETRAS Upper Limb Score by Video Review, Median",[2],9.50
same,"TETRAS Upper Limb Score by Video Review, Percentage Change from Baseline in Tremor Amplitude, Mean (SD)",[2],−4.23 (19.775) %
same,"TETRAS Upper Limb Score by Video Review, Percentage Change from Baseline in Tremor Amplitude, Median",[2],0.00%
same,"TETRAS Performance Subscale Total Score by Video Review, Change from Baseline, Mean (SD)",[3],−0.42 (2.973)
same,"TETRAS Performance Subscale Total Score by Video Review, Change from Baseline, Median",[3],−0.50
same,"TETRAS Performance Subscale Total Score by Video Review, Mean (SD)",[3],21.92 (4.398)
same,"TETRAS Performance Subscale Total Score by Video Review, Median",[3],21.75
same,"TETRAS Performance Subscale Total Score by Video Review, Percentage Change from Baseline in Tremor Amplitude, Mean (SD)",[3],−2.29 (18.383) %
same,"TETRAS Performance Subscale Total Score by Video Review, Percentage Change from Baseline in Tremor Amplitude, Median",[3],−3.47%
same,"TETRAS Upper Limb Score by Video Review, Change from Baseline, Mean (SD)",[3],0.33 (1.125)
same,"TETRAS Upper Limb Score by Video Review, Change from Baseline, Median",[3],0.75
same,"TETRAS Upper Limb Score by Video Review, Mean (SD)",[3],10.25 (1.666)
same,"TETRAS Upper Limb Score by Video Review, Median",[3],9.50
same,"TETRAS Upper Limb Score by Video Review, Percentage Change from Baseline in Tremor Amplitude, Mean (SD)",[3],5.82 (19.104) %
same,"TETRAS Upper Limb Score by Video Review, Percentage Change from Baseline in Tremor Amplitude, Median",[3],13.30%
same,"TETRAS Performance Subscale Total Score by Video Review, Change from Baseline, Mean (SD)","Day 7, Part A (N = 7)",−1.25 (3.094)
same,"TETRAS Performance Subscale Total Score by Video Review, Change from Baseline, Median","Day 7, Part A (N = 7)",−1.25
same,"TETRAS Performance Subscale Total Score by Video Review, Mean (SD)","Day 7, Part A (N = 7)",21.00 (2.449)
same,"TETRAS Performance Subscale Total Score by Video Review, Median","Day 7, Part A (N = 7)",21.75
same,"TETRAS Performance Subscale Total Score by Video Review, Percentage Change from Baseline in Tremor Amplitude, Mean (SD)","Day 7, Part A (N = 7)",−7.45 (19.377) %
same,"TETRAS Performance Subscale Total Score by Video Review, Percentage Change from Baseline in Tremor Amplitude, Median","Day 7, Part A (N = 7)",−8.23%
same,"TETRAS Upper Limb Score by Video Review, Change from Baseline, Mean (SD)","Day 7, Part A (N = 7)",−0.25 (1.332)
same,"TETRAS Upper Limb Score by Video Review, Change from Baseline, Median","Day 7, Part A (N = 7)",0.00
same,"TETRAS Upper Limb Score by Video Review, Mean (SD)","Day 7, Part A (N = 7)",9.83 (0.816)
same,"TETRAS Upper Limb Score by Video Review, Median","Day 7, Part A (N = 7)",10.00
same,"TETRAS Upper Limb Score by Video Review, Percentage Change from Baseline in Tremor Amplitude, Mean (SD)","Day 7, Part A (N = 7)",−3.79 (22.054) %
same,"TETRAS Upper Limb Score by Video Review, Percentage Change from Baseline in Tremor Amplitude, Median","Day 7, Part A (N = 7)",0.00%
same,"TETRAS Performance Subscale Total Score by Video Review, Change from Baseline, Mean (SD)",[4],−2.28 (5.019)
same,"TETRAS Performance Subscale Total Score by Video Review, Change from Baseline, Median",[4],−3.50
same,"TETRAS Performance Subscale Total Score by Video Review, Mean (SD)",[4],20.17 (6.595)
same,"TETRAS Performance Subscale Total Score by Video Review, Median",[4],20.50
same,"TETRAS Performance Subscale Total Score by Video Review, Percentage Change from Baseline in Tremor Amplitude, Mean (SD)",[4],−13.83 (27.204) %
same,"TETRAS Performance Subscale Total Score by Video Review, Percentage Change from Baseline in Tremor Amplitude, Median",[4],−22.26%
same,"TETRAS Upper Limb Score by Video Review, Change from Baseline, Mean (SD)",[4],−1.15 (1.916)
same,"TETRAS Upper Limb Score by Video Review, Change from Baseline, Median",[4],−1.50
same,"TETRAS Upper Limb Score by Video Review, Mean (SD)",[4],8.75 (2.880)
same,"TETRAS Upper Limb Score by Video Review, Median",[4],8.50
same,"TETRAS Upper Limb Score by Video Review, Percentage Change from Baseline in Tremor Amplitude, Mean (SD)",[4],−17.86 (27.226) %
same,"TETRAS Upper Limb Score by Video Review, Percentage Change from Baseline in Tremor Amplitude, Median",[4],−25.01%
same,"TETRAS Performance Subscale Total Score by Video Review, Change from Baseline, Mean (SD)",[5],−2.00 (2.291)
same,"TETRAS Performance Subscale Total Score by Video Review, Change from Baseline, Median",[5],−1.50
same,"TETRAS Performance Subscale Total Score by Video Review, Mean (SD)",[5],20.33 (2.754)
same,"TETRAS Performance Subscale Total Score by Video Review, Median",[5],20.50
same,"TETRAS Performance Subscale Total Score by Video Review, Percentage Change from Baseline in Tremor Amplitude, Mean (SD)",[5],−12.63 (13.986) %
same,"TETRAS Performance Subscale Total Score by Video Review, Percentage Change from Baseline in Tremor Amplitude, Median",[5],−10.23%
same,"TETRAS Upper Limb Score by Video Review, Change from Baseline, Mean (SD)",[5],−0.88 (1.031)
same,"TETRAS Upper Limb Score by Video Review, Change from Baseline, Median",[5],−1.00
same,"TETRAS Upper Limb Score by Video Review, Mean (SD)",[5],9.00 (0.913)
same,"TETRAS Upper Limb Score by Video Review, Median",[5],9.00
same,"TETRAS Upper Limb Score by Video Review, Percentage Change from Baseline in Tremor Amplitude, Mean (SD)",[5],−14.41 (17.112) %
same,"TETRAS Upper Limb Score by Video Review, Percentage Change from Baseline in Tremor Amplitude, Median",[5],−17.46%
same,"TETRAS Performance Subscale Total Score by Video Review, Change from Baseline, Mean (SD)","Day 14, Part A (N = 7)",−2.92 (2.654)
same,"TETRAS Performance Subscale Total Score by Video Review, Change from Baseline, Median","Day 14, Part A (N = 7)",−3.00
same,"TETRAS Performance Subscale Total Score by Video Review, Mean (SD)","Day 14, Part A (N = 7)",19.33 (2.380)
same,"TETRAS Performance Subscale Total Score by Video Review, Median","Day 14, Part A (N = 7)",19.00
same,"TETRAS Performance Subscale Total Score by Video Review, Percentage Change from Baseline in Tremor Amplitude, Mean (SD)","Day 14, Part A (N = 7)",−17.69 (15.649) %
same,"TETRAS Performance Subscale Total Score by Video Review, Percentage Change from Baseline in Tremor Amplitude, Median","Day 14, Part A (N = 7)",−19.21%
same,"TETRAS Upper Limb Score by Video Review, Change from Baseline, Mean (SD)","Day 14, Part A (N = 7)",−1.33 (1.080)
same,"TETRAS Upper Limb Score by Video Review, Change from Baseline, Median","Day 14, Part A (N = 7)",−1.50
same,"TETRAS Upper Limb Score by Video Review, Mean (SD)","Day 14, Part A (N = 7)",8.75 (1.294)
same,"TETRAS Upper Limb Score by Video Review, Median","Day 14, Part A (N = 7)",9.25
same,"TETRAS Upper Limb Score by Video Review, Percentage Change from Baseline in Tremor Amplitude, Mean (SD)","Day 14, Part A (N = 7)",−21.27 (17.102) %
same,"TETRAS Upper Limb Score by Video Review, Percentage Change from Baseline in Tremor Amplitude, Median","Day 14, Part A (N = 7)",−24.67%
same,"TETRAS Performance Subscale Total Score by Video Review, Change from Baseline, Mean (SD)","Day 21, Part A (N = 7)",−1.00 (3.146)
same,"TETRAS Performance Subscale Total Score by Video Review, Change from Baseline, Median","Day 21, Part A (N = 7)",−0.75
same,"TETRAS Performance Subscale Total Score by Video Review, Mean (SD)","Day 21, Part A (N = 7)",21.25 (2.734)
same,"TETRAS Performance Subscale Total Score by Video Review, Median","Day 21, Part A (N = 7)",21.75
same,"TETRAS Performance Subscale Total Score by Video Review, Percentage Change from Baseline in Tremor Amplitude, Mean (SD)","Day 21, Part A (N = 7)",−5.84 (20.134) %
same,"TETRAS Performance Subscale Total Score by Video Review, Percentage Change from Baseline in Tremor Amplitude, Median","Day 21, Part A (N = 7)",−4.59%
same,"TETRAS Upper Limb Score by Video Review, Change from Baseline, Mean (SD)","Day 21, Part A (N = 7)",−0.67 (1.602)
same,"TETRAS Upper Limb Score by Video Review, Change from Baseline, Median","Day 21, Part A (N = 7)",−0.25
same,"TETRAS Upper Limb Score by Video Review, Mean (SD)","Day 21, Part A (N = 7)",9.42 (1.320)
same,"TETRAS Upper Limb Score by Video Review, Median","Day 21, Part A (N = 7)",9.50
same,"TETRAS Upper Limb Score by Video Review, Percentage Change from Baseline in Tremor Amplitude, Mean (SD)","Day 21, Part A (N = 7)",−9.56 (25.141) %
same,"TETRAS Upper Limb Score by Video Review, Percentage Change from Baseline in Tremor Amplitude, Median","Day 21, Part A (N = 7)",−4.16%
same,"TETRAS Performance Subscale Total Score by Video Review, Change from Baseline, Mean (SD)",[6],−0.96 (3.122)
same,"TETRAS Performance Subscale Total Score by Video Review, Change from Baseline, Median",[6],−1.00
same,"TETRAS Performance Subscale Total Score by Video Review, Mean (SD)",[6],21.67 (5.809)
same,"TETRAS Performance Subscale Total Score by Video Review, Median",[6],21.25
same,"TETRAS Performance Subscale Total Score by Video Review, Percentage Change from Baseline in Tremor Amplitude, Mean (SD)",[6],−5.66 (18.983) %
same,"TETRAS Performance Subscale Total Score by Video Review, Percentage Change from Baseline in Tremor Amplitude, Median",[6],−6.88%
same,"TETRAS Upper Limb Score by Video Review, Change from Baseline, Mean (SD)",[6],−0.67 (1.628)
same,"TETRAS Upper Limb Score by Video Review, Change from Baseline, Median",[6],−0.50
